From PMC8958506, “Site-Specific Isopeptide Bond Formation: A Powerful Tool for the Generation of Potent and Nontoxic Antimicrobial Peptides” (Journal of Medicinal Chemistry, 2022) come the findings set out here.

The test system of one data set is B. subtilis ATCC 6051. In kind it is cell-based, Bacillus subtilis. The conditions noted are these: ATCC 6051, 24 h. On the procedure: (§1) For our experiments, we used strains obtained from the American Type Culture Collection (ATCC), including P. aeruginosa PAO1, E. coli K12 parental type, S. aureus ATCC 6538P, and B. subtilis ATCC 6051. The MIC assays were performed as reported by Wiegand et al. using the broth microdilution method in 96-well round-bottom microplates.[35] The MIC was defined as the lowest concentration at which no bacterial growth was observed. Briefly, bacteria were inoculated into Mueller Hinton broth (MHB), cultured overnight at 37 °C, and transferred to a new MHB until the exponential phase of growth. The bacteria were diluted to 1 × 10^6 CFU/mL using MHB, and the peptides were prepared in double-distilled water (DDW) filtered over a 0.25 μm filter. To 50 μL of the MHB medium containing two fold serially diluted peptides with concentrations ranging from 1.56 to 50 μM were added 50 μL aliquots of the bacterial solution. The plates were incubated for 24 h at 37 °C. The positive and negative controls used were cultured without peptides (100% growth) and uninoculated MHB broth (0% growth). The bacterial growth inhibition was evaluated by measuring the absorbance at 600 nm using a microplate autoreader (SynersyMx, Biotek).

The next data set deals with P. aeruginosa PAO1. Format: cell-based, Pseudomonas aeruginosa. The conditions noted are these: PAO1, 24 h. The method, then: as §1
The subject of a further data set is S. aureus ATCC 6538P. Format: cell-based, Staphylococcus aureus. The conditions noted are these: ATCC 6538, 24 h. On the procedure: as §1
The next data set concerns trypsin. The following applies: trypsin 10 μg/mL, peptide 100 μM in PBS pH 7.4, after 30 min of incubation; RP-HPLC peak area relative to t0. The method, then:
Proteolysis was measured by RP-HPLC using the following parameters, as reported.[33] Trypsin with a final concentration of 10 μg/mL was added to a solution of the peptides in PBS (pH 7.4) (100 μM). The reaction was monitored over time using reversed-phase HPLC (C18 reversed-phase Bio-Rad analytical column, 250 × 4 mm, 300 Å pore size, and 7 μm particle size). The column was eluted in 40 min using a linear gradient of 10–90% acetonitrile in water, both containing 0.1% trifluoroacetic acid (v/v), at a flow rate of 0.6 mL/min.

Each structure is given as a SMILES string. In brackets after ≈: the same amount, converted by molar mass. Starred links: 1 amine or outer side, 2 acyl side, 3 side chain; linkers in the order of their positions; H or OH if unused. Positions of bridges follow the written chain, without caps; N, C: chain ends. Non-standard residues stand in square brackets, D forms with d. Residues, ends and D or L forms follow the SMILES beside them. Groups on a side chain read outwards from the residue. Chains are numbered I, II in the order given. εLys = N[C@@H](CCCCN[*:1])C(=O)[*:2]

The MIC is the lowest concentration that inhibits growth of the organism. In the case of `CC(C)C[C@H](NC(=O)[C@H](CC(C)C)NC(=O)[C@H](CCCCN)NC(=O)[C@H](CC(C)C)NC(=O)[C@H](CC(C)C)NC(=O)[C@H](CCCCN)NC(=O)[C@H](CCCCN)NC(=O)[C@H](CC(C)C)NC(=O)[C@H](CC(C)C)NC(=O)[C@H](CCCCN)NC(=O)[C@H](CCCCN)NC(=O)[C@H](CC(C)C)NC(=O)[C@H](CC(C)C)NC(=O)[C@@H](N)CCCCNC(=O)[C@@H](N)CC(C)C)C(N)=O` [Amp1EP2] (H-K(Leu)LLKKLLKKLLKLL-NH2), the MIC against B. subtilis ATCC 6051, against P. aeruginosa PAO1 and against S. aureus ATCC 6538P was 1.56 µM (≈ 2.82 µg/mL) each time.
As to `CC(C)C[C@H](NC(=O)[C@H](CC(C)C)NC(=O)[C@H](CCCCN)NC(=O)[C@H](CC(C)C)NC(=O)[C@H](CC(C)C)NC(=O)[C@H](CCCCN)NC(=O)[C@H](CCCCN)NC(=O)[C@H](CC(C)C)NC(=O)[C@H](CC(C)C)NC(=O)[C@H](CCCCN)NC(=O)[C@@H](N)CCCCNC(=O)[C@H](CC(C)C)NC(=O)[C@H](CC(C)C)NC(=O)[C@H](CCCCN)NC(=O)[C@@H](N)CC(C)C)C(N)=O` [Amp1EP5] (H-K([Leu-Leu-Lys-Leu])KLLKKLLKLL-NH2), the minimum inhibitory concentration (MIC) against B. subtilis ATCC 6051 was 1.56 µM (≈ 2.82 µg/mL); against P. aeruginosa PAO1 it was 3.12 µM (≈ 5.63 µg/mL); in the data set on S. aureus ATCC 6538P it was 3.12 µM (≈ 5.63 µg/mL).
`CC(C)C[C@H](NC(=O)[C@H](CC(C)C)NC(=O)[C@H](CCCCN)NC(=O)[C@H](CC(C)C)NC(=O)[C@H](CC(C)C)NC(=O)[C@H](CCCCN)NC(=O)[C@H](CCCCN)NC(=O)[C@H](CC(C)C)NC(=O)[C@H](CC(C)C)NC(=O)[C@@H](N)CCCCNC(=O)[C@H](CCCCN)NC(=O)[C@H](CC(C)C)NC(=O)[C@H](CC(C)C)NC(=O)[C@H](CCCCN)NC(=O)[C@@H](N)CC(C)C)C(N)=O` [Amp1EP6] (I: H-KLLKKLLKLL-NH2 / II: H-LKLLK; amide I:1-II:C): the minimal inhibitory concentration (MIC) against B. subtilis ATCC 6051, with P. aeruginosa PAO1 and with S. aureus ATCC 6538P was 1.56 µM (≈ 2.82 µg/mL) each time.
For `CC(C)C[C@H](NC(=O)[C@H](CC(C)C)NC(=O)[C@H](CCCCN)NC(=O)[C@H](CC(C)C)NC(=O)[C@H](CC(C)C)NC(=O)[C@H](CCCCN)NC(=O)[C@@H](N)CCCCNC(=O)[C@H](CC(C)C)NC(=O)[C@H](CC(C)C)NC(=O)[C@H](CCCCN)NC(=O)[C@H](CCCCN)NC(=O)[C@H](CC(C)C)NC(=O)[C@H](CC(C)C)NC(=O)[C@H](CCCCN)NC(=O)[C@@H](N)CC(C)C)C(N)=O` [Amp1EP9] (H-LKLLKKLL[εLys]KLLKLL-NH2), the MIC with B. subtilis ATCC 6051 came out at 3.12 µM (≈ 5.63 µg/mL); against P. aeruginosa PAO1, 3.12 µM (≈ 5.63 µg/mL); against S. aureus ATCC 6538P it was 6.25 µM (≈ 11.3 µg/mL). In addition, the “peptide remaining intact with trypsin” value with trypsin was 40%.
Consider `CC(C)C[C@H](NC(=O)[C@H](CC(C)C)NC(=O)[C@H](CCCCN)NC(=O)[C@H](CC(C)C)NC(=O)[C@H](CC(C)C)NC(=O)[C@@H](N)CCCCNC(=O)[C@H](CCCCN)NC(=O)[C@H](CC(C)C)NC(=O)[C@H](CC(C)C)NC(=O)[C@H](CCCCN)NC(=O)[C@H](CCCCN)NC(=O)[C@H](CC(C)C)NC(=O)[C@H](CC(C)C)NC(=O)[C@H](CCCCN)NC(=O)[C@@H](N)CC(C)C)C(N)=O` [Amp1EP10] (H-LKLLKKLLK[εLys]LLKLL-NH2), for which the MIC in the data set on B. subtilis ATCC 6051, against P. aeruginosa PAO1 and against S. aureus ATCC 6538P was 3.12 µM (≈ 5.63 µg/mL) in each case.
As for `CC(C)C[C@H](NC(=O)[C@H](CC(C)C)NC(=O)[C@@H](N)CCCCNC(=O)[C@H](CC(C)C)NC(=O)[C@H](CC(C)C)NC(=O)[C@H](CCCCN)NC(=O)[C@H](CCCCN)NC(=O)[C@H](CC(C)C)NC(=O)[C@H](CC(C)C)NC(=O)[C@H](CCCCN)NC(=O)[C@H](CCCCN)NC(=O)[C@H](CC(C)C)NC(=O)[C@H](CC(C)C)NC(=O)[C@H](CCCCN)NC(=O)[C@@H](N)CC(C)C)C(N)=O` [Amp1EP13] (H-LKLLKKLLKKLL[εLys]LL-NH2), the MIC against B. subtilis ATCC 6051, against P. aeruginosa PAO1 and in the data set with S. aureus ATCC 6538P was 1.56 µM (≈ 2.82 µg/mL) throughout.
On to `CC(C)C[C@H](NC(=O)[C@H](CC(C)C)NC(=O)[C@H](CCCCN)NC(=O)[C@H](CC(C)C)NC(=O)[C@H](CC(C)C)NC(=O)[C@H](CCCCN)NC(=O)[C@H](CCCCN)NC(=O)[C@H](CC(C)C)NC(=O)[C@H](CC(C)C)NC(=O)[C@H](CCCCN)NC(=O)[C@H](CCCCN)NC(=O)[C@H](CC(C)C)NC(=O)[C@H](CC(C)C)NC(=O)[C@H](CCCCN)NC(=O)[C@@H](N)CC(C)C)C(N)=O` [Amp1L, reference compound] (H-LKLLKKLLKKLLKLL-NH2), for which the MIC in the data set on B. subtilis ATCC 6051, against P. aeruginosa PAO1 and against S. aureus ATCC 6538P was 12.5 µM (≈ 22.6 µg/mL) in each case. The “peptide remaining intact with trypsin” value with trypsin is on record as “neither the parental peptide Amp1L nor any of the other modified peptides were detected”.
